Legend:
Erisiphe graminis [1] = test: Fungicidal activity versus powdery mildew on wheat plants; type: in vivo, Erisiphe graminis on winter wheat plants, variety Corvus; conditions: day 17, mean of 4 replicates
Method: • Test model: Winter wheat plants, variety Corvus, were sprayed with the test solutions till run off. Treated plants were incubated in the glasshouse and dusted with Erisiphe graminis conidia after drying. • Test solutions: • 1) aqueous solutions were prepared by diluting a commercial propiconazole formulation “Tilt® 250 EC” until spray solutions were obtained comprising 8, 16, 20, and 24 ppm of propiconazole. • 2) aqueous solutions were prepared comprising of 40, 80, 160, 320, 640, 1280, and 2560 ppm of N,N′,N′-tris(2-hydroxyethyl)-N-cocoalkyl-1,3-diamino-propane (i.e. ethoduomeen C/13). • 3) to aqueous solutions comprising 8 and 16 ppm of propiconazole an amount of “ethoduomeen C/13” was added yielding test solutions wherein the ratio of propiconazole over “ethoduomeen C/13” is 1/160, 1/80, 1/40, 1/20, 1/10 and 1/5.
The commercial “Tilt® 250 EC” formulation comprises 25% (w/v) of propiconazole dissolved in an aromatic petroleum hydrocarbon liquid mixture.
On day 17 after dusting the wheat plants with Erisiphe graminis the % inhibition of fungal growth was evaluated.

Erisiphe graminis [2] = test: as above; type: in vivo, Erisiphe graminis on winter wheat plants, variety Corvus; conditions: propiconazole 0, ethoduomeen C/13 16 ppm a.i.; day 17; mean of 4 replicates

Compound | % Fungicidal activity versus E. graminis (Erisiphe graminis [1]; propiconazole 8 ppm a.i., ethoduomeen C/13 0) | % Fungicidal activity versus E. graminis (Erisiphe graminis [1]; propiconazole 16 ppm a.i., ethoduomeen C/13 0) | % Fungicidal activity versus E. graminis (Erisiphe graminis [1]; propiconazole 20 ppm a.i., ethoduomeen C/13 0) | % Fungicidal activity versus E. graminis (Erisiphe graminis [1]; propiconazole 24 ppm a.i., ethoduomeen C/13 0) | % Fungicidal activity versus E. graminis (Erisiphe graminis [2]) | % Fungicidal activity versus E. graminis (Erisiphe graminis [1]; propiconazole 0, ethoduomeen C/13 40 ppm a.i.) | % Fungicidal activity versus E. graminis (Erisiphe graminis [1]; propiconazole 0, ethoduomeen C/13 80 ppm a.i.) | % Fungicidal activity versus E. graminis (Erisiphe graminis [1]; propiconazole 0, ethoduomeen C/13 320 ppm a.i.) | % Fungicidal activity versus E. graminis (Erisiphe graminis [1]; propiconazole 0, ethoduomeen C/13 640 ppm a.i.) | % Fungicidal activity versus E. graminis (Erisiphe graminis [1]; propiconazole 0, ethoduomeen C/13 1280 ppm a.i.) | % Fungicidal activity versus E. graminis (Erisiphe graminis [1]; propiconazole 0, ethoduomeen C/13 2560 ppm a.i.)
CCCC1COC(Cn2cncn2)(c2ccc(Cl)cc2Cl)O1 (centres unmarked) [propiconazole, 1-[[2-(2,4-dichlorophenyl)-4-propyl-1,3-dioxolan-2-yl]methyl]-1H -1,2,4-triazole] | 25% | 50% | 50% | 80% | – | – | – | – | – | – | –
N,N′,N′-tris(2-hydroxyethyl)-N-cocoalkyl-1,3-diamino-propane [ethoduomeen C/13] | – | – | – | – | 0% | 0% | 0% | 0% | 0% | 0% | 0%

From patent US7662748B2, “Formulations comprising triazoles and alkoxylated amines” (Janssen Pharmaceutica, N.V., priority 2002, dated 2010)
